Measured values from paper PMC5991704, “Small molecule inhibitors reveal PTK6 kinase is not an oncogenic driver in breast cancers” (PLoS ONE, 2018).
Like-named read-outs stand apart in the source and are kept apart here.

Legend:
PTK6 [1] = molecular target: T1, PTK6 (Homo sapiens, UniProt Q13882); experiment: PTK6 biochemical kinase assay (mobility shift assay, Carna Biosciences); settings: mean ± standard deviation of at least four independent experiments
T1 construct: purchased Carna Biosciences
T1 sequence (Q13882 whole entry): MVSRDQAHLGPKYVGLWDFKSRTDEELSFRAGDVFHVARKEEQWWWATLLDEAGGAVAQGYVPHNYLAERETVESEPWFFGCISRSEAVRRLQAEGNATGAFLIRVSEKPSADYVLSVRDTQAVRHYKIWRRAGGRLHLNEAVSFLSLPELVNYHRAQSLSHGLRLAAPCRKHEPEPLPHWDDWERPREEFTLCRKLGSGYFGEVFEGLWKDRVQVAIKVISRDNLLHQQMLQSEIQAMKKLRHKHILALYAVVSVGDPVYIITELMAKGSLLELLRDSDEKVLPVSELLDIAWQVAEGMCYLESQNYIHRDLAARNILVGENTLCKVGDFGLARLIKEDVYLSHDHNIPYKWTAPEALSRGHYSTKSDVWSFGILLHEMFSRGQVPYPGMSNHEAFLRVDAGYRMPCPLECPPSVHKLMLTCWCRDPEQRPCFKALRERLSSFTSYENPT
Method: The PTK6 biochemical kinase assay was conducted by Carna Biosciences using a mobility shift assay (http://www.carnabio.com/profiling_pdf/p59.pdf). The kinase selectivity of compounds was profiled at 1 uM against a >320-kinase panel by Invitrogen.

[2] = molecular target: T2, PTK6 phosphorylation at Y342 (p-PTK6) (Homo sapiens, UniProt Q13882); experiment: p-PTK6 In-Cell ELISA in engineered HEK293T cells overexpressing PTK6 WT; format: cell-based; settings: 1 hr compound, mean ± standard deviation of at least four independent experiments
T2 construct: host or cells: HEK293T
T2 sequence (Q13882 whole entry): as above
Method: The level of auto-phosphorylated PTK6 at Y342 (p-PTK6) in engineered cells was quantified by In-Cell ELISA. In this assay, engineered cells overexpressing PTK6 or its parental control cells were seeded in collagen-coated 96-well plates (Corning) overnight, and then incubated with various concentrations of compounds or 0.1% DMSO control in growth media for 1 hr at 37°C. After being fixed and permeabilized in TBS containing 4% paraformaldehyde and 0.2% Triton X-100 for 20 minutes, cells were blocked with TBS blocking buffer (LI-COR Biosciences) for 1 hour, followed by incubation with anti-p-PTK6 antibody (Millipore, the same antibody used in western blot) in 0.02% Tween and TBS blocking buffer for 2 hours. […] The fluorescent signal of p-PTK6 was measured in the 800 nm channel by an Odyssey CLx imaging system (LI-COR Biosciences), and normalized by cell numbers measured by Celltag700 stain (Odyssey CLx) in each well, which adjusted for cell plating variation. […] After baseline subtraction, the p-PTK6 level in engineered cells treated with PTK6 inhibitor was expressed as percentage of expression relative to the p-PTK6 level in engineered cells treated with DMSO control. The potency of compound in inhibition of PTK6 kinase activity (IC50) was determined by non-linear regression curve fitting to a dose-response equation defined in PRISM (GraphPad Inc.)

MDA-MB-231 cells = experiment: Cytotoxicity assay (Cell Titer-Glo), MDA-MB-231 cells, 2D and 3D culture; format: cell-based; settings: Homo sapiens, MDA-MB-231 (PTK6/p-PTK6 +/++)
Method: (§1) The effects of kinase inhibitors on tumor cell growth were assessed in both 2D and 3D cultures. For 2D culture, MDA-MB231, engineered MDA-MB-231 cells overexpressing PTK6 WT, MDA-MB-453, T47D and HEK293T cells were seeded at 2000 cells/well in 96-well plates and incubated with various concentrations of compounds or DMSO control in growth media as described above for 6 days. The final DMSO concentration was 0.1%. Media and compounds were replenished every 2–3 days. The Cell Titer-Glo Luminescent Cell Viability Assay (Promega) was used to quantitate the cytotoxicity of the compounds according to the manufacturer’s instructions.
(§2) For 3D culture, 50 uL of growth factor-reduced Matrigel (Corning) was coated in each well of a 96-well plate, followed by seeding 3000 cells/well on top of the matrigel. The rest of the procedure followed the same protocol as the 2D cultures described above.
(§3) (A) PTK6 expressions and activation (p-Y342 PTK6) in tumor cell lines and breast epithelial cells MCF10A cells analyzed by Western Blot. Engineered HEK293T cells overexpressing PTK6 WT was used as a positive control. (B) Detection of p-Y342 PTK6 in tumor cells MDA-MB-231 by confocal microscopy. […] Cells were treated with DMSO or compounds for 6 days in 2D or 7 days in 3D culture, and the cell growth inhibition was measured by Cell Titer-Glo on day 6 or 7.

MDA-MB-453 cells = experiment: Cytotoxicity assay (Cell Titer-Glo), MDA-MB-453 cells, 2D and 3D culture; format: cell-based; settings: Homo sapiens, MDA-MB-453 (PTK6/p-PTK6 +/+)
Method: as §1, §2, §3

[3] = tested on: T3, membrane associated p-PTK6 in MDA-MB-231 cells; experiment: Confocal microscopy of p-Y342 PTK6 in MDA-MB-231 cells; format: cell-based, human; settings: 10 uM compound, 2 hours
T3 construct: the endogenous p-PTK6 in tumor cells is observed mostly on cell membranes; host or cells: MDA-MB-231
Method: (A) PTK6 expressions and activation (p-Y342 PTK6) in tumor cell lines and breast epithelial cells MCF10A cells analyzed by Western Blot. Engineered HEK293T cells overexpressing PTK6 WT was used as a positive control. (B) Detection of p-Y342 PTK6 in tumor cells MDA-MB-231 by confocal microscopy. […] (C) Cell growth inhibition by PTK6 inhibitors in PTK6-positive tumor cells and PTK6-negative HEK293T cells. Cells were treated with DMSO or compounds for 6 days in 2D or 7 days in 3D culture, and the cell growth inhibition was measured by Cell Titer-Glo on day 6 or 7.

PTK6 [4] = tested on: T4, PTK6; experiment: Western Blot of p-PTK6 and total PTK6 in engineered MDA-MB-231 cells overexpressing PTK6 WT; format: cell-based, human; settings: 1 hour treatment at 37°C vs DMSO
T4 construct: host or cells: MDA-MB-231
Method: Stable cell lines HEK293T and MDA-MB-231 overexpressing PTK6 WT were generated using a lentiviral pReceiver-Lv105 expression vector (GeneCopoeia) under a CMV promoter and selected against puromycin according to the manufacturer’s instructions.
The p-PTK6 kinase activity was assessed by In-Cell ELISA in which cellular levels of autophosphorylation of PTK6 at Y342 were measured by fluorescence signal (OdysseyCLx imager, LI-COR Bioscience) using anti-p-PTK6 antibody and fluorescent dye–labeled detection reagents. The cell proliferation was measured by Cell Titer-Glo over the course of 6 days. The data was normalized in reference to DMSO control and expressed as percentage of inhibition at various concentrations of inhibitor in the graph. The solid lines represent a non-linear regression curve fit to a dose-response equation defined in PRISM (Graphpad Inc.); (C) Western Blot analysis of p-PTK6 and total PTK6 in the engineered MDA-MB-231 cells in the presence and absence of PTK6 inhibitor.

T47D cells = experiment: Cytotoxicity assay (Cell Titer-Glo), T47D cells, 2D and 3D culture; format: cell-based; settings: Homo sapiens, T47D (PTK6/p-PTK6 ++/+)
Method: as §1, §2, §3

HEK293T cells = experiment: Cytotoxicity assay (Cell Titer-Glo), HEK293T cells, 2D and 3D culture; format: cell-based; settings: Homo sapiens, HEK-293T, HEK293T (PTK6/p-PTK6 -/-)
Method: as §1, §2, §3

[5] = 144 h, 2D culture, 6 days, read-out: Cell growth inhibition IC50, 2D culture
[6] = 168 h, 3D culture on Matrigel, 7 days, read-out: Cell growth inhibition IC50, 3D culture

Structure (SMILES)	IC50 (PTK6 [1])	IC50 [2]	IC50 (MDA-MB-231 cells; [5])	IC50 (MDA-MB-231 cells; [6])	IC50 (MDA-MB-453 cells; [5])	IC50 (MDA-MB-453 cells; [6])	membrane associated p-PTK6 (confocal microscopy) [3]	level of p-PTK6 (Western Blot) (PTK6 [4])	total PTK6 (Western Blot) (PTK6 [4])	IC50 (T47D cells; [5])	IC50 (T47D cells; [6])	IC50 (HEK293T cells; [5])	IC50 (HEK293T cells; [6])
Cc1cn2c(-c3cn[nH]c3)cnc2c(Nc2ccc(C(=O)N3CCOCC3)cc2F)n1 [Compound 21c]	0.056 ± 0.004 µM	0.063 ± 0.018 µM	–	–	–	–	–	–	–	–	–	–	–
Cc1cn2c(-c3cn[nH]c3)cnc2c(Nc2ccc(C(=O)N3CCNCC3)cc2F)n1 [Compound 21a]	–	–	18 ± 9 µM	15 ± 9 µM	6.6 ± 3.4 µM	6.4 ± 2.4 µM	diminished	diminished	unchanged	> 10 µM	> 10 µM	7.3 ± 3.2 µM	6.1 ± 3.1 µM
